According to PubChem BioAssay AID1745844 (Carcinogenic Potency Database (CPDB), 2022):
“And” between values parts separate entries of the source, which are not always exact repeats. Equal entries are not always repeated. The source made the active and inactive calls. No rule for the calls is given here.

System: rodent lifetime carcinogenesis bioassay, tumor incidence TD50
Test: carcinogenic potency in animals, long-term in vivo studies, CPDB compilation (AID 1745844)

O=C1CN(N=Cc2ccc([N+](=O)[O-])o2)C(=O)N1
TD50 (mouse, strain B6C3F1, females, in feed, site: cervix uteri, lesion: leiomyosarcoma, dosed 64 weeks, study length 64 weeks): 4000 mg/kg/day (inactive)
TD50 (mouse, strain B6C3F1, females, in feed, site: liver, lesion: hepatocellular adenoma + hepatocellular carcinoma + neoplastic nodule, dosed 103 weeks, study length 105 weeks): 2330 mg/kg/day
TD50 (mouse, strain B6C3F1, females, in feed, site: ovary, lesion: granulosa-cell tumor, benign + granulosa-cell tumor, malignant + mixed tumor, benign + tubular adenoma, dosed 103 weeks, study length 105 weeks): 866 mg/kg/day
TD50 (mouse, strain B6C3F1, females, in feed, site: ovary, lesion: granulosa-cell tumor, benign + granulosa-cell tumor, malignant, dosed 103 weeks, study length 105 weeks): 2560 mg/kg/day
TD50 (mouse, strain B6C3F1, females, in feed, site: ovary, lesion: granulosa-cell tumor, benign, dosed 103 weeks, study length 105 weeks): 8470 mg/kg/day
TD50 (mouse, strain B6C3F1, females, in feed, site: ovary, lesion: granulosa-cell tumor, dosed 64 weeks, study length 64 weeks): 4020 mg/kg/day (inactive)
TD50 (mouse, strain B6C3F1, females, in feed, site: ovary, lesion: mixed tumor, benign + tubular adenoma, dosed 103 weeks, study length 105 weeks): 1400 mg/kg/day
TD50 (mouse, strain B6C3F1, females, in feed, site: ovary, lesion: mixed tumor, benign, dosed 103 weeks, study length 105 weeks): 3380 mg/kg/day
TD50 (mouse, strain B6C3F1, females, in feed, site: ovary, lesion: tubular adenoma, dosed 103 weeks, study length 105 weeks): 2530 mg/kg/day
carcinogen call (mouse, strain B6C3F1, males, in feed, site: any site (literature study), lesion: several types, types named in the paper, dosed 103 weeks, study length 105 weeks): negative (inactive)
carcinogen call (mouse, strain BDF1, females, in feed, site: any site (literature study), lesion: several types, types named in the paper, dosed 104 weeks, study length 104 weeks): negative (inactive)
carcinogen call (mouse, strain BDF1, females, in feed, site: liver, lesion: hemangioma, dosed 104 weeks, study length 104 weeks): negative (inactive)
carcinogen call (mouse, strain BDF1, females, in feed, site: lung, lesion: adenocarcinoma, dosed 104 weeks, study length 104 weeks): negative (inactive)
carcinogen call (mouse, strain BDF1, males, in feed, site: any site (literature study), lesion: several types, types named in the paper, dosed 104 weeks, study length 104 weeks): negative (inactive)
carcinogen call (mouse, strain BDF1, males, in feed, site: liver, lesion: adenoma, dosed 104 weeks, study length 104 weeks): negative (inactive)
carcinogen call (mouse, strain BDF1, males, in feed, site: liver, lesion: hemangioma, dosed 104 weeks, study length 104 weeks): negative (inactive)
TD50 (mouse, strain BDF1, males, in feed, site: lung, lesion: adenoma, dosed 104 weeks, study length 104 weeks): 53900 mg/kg/day (inactive)
TD50 (mouse, strain Charles River CD1, females, in feed, site: liver, lesion: hemangioma, dosed 93 weeks, study length 100 weeks): 4460 mg/kg/day (inactive)
carcinogen call (mouse, strain Charles River CD1, females, in feed, site: liver, lesion: hemangiosarcoma, dosed 93 weeks, study length 100 weeks): negative (inactive)
carcinogen call (mouse, strain Charles River CD1, females, in feed, site: liver, lesion: hepatocellular adenoma, dosed 93 weeks, study length 100 weeks): negative (inactive)
carcinogen call (mouse, strain Charles River CD1, females, in feed, site: lung, lesion: alveolar-cell adenoma, dosed 93 weeks, study length 100 weeks): negative (inactive)
carcinogen call (mouse, strain Charles River CD1, females, in feed, site: lung, lesion: alveolar-cell carcinoma, dosed 93 weeks, study length 100 weeks): negative (inactive)
TD50 (mouse, strain Charles River CD1, males, in feed, site: all sites, lesion: myeloid leukemia, dosed 93 weeks, study length 100 weeks): 588 mg/kg/day (inactive)
carcinogen call (mouse, strain Charles River CD1, males, in feed, site: liver, lesion: hemangiosarcoma, dosed 93 weeks, study length 100 weeks): negative (inactive)
TD50 (mouse, strain Charles River CD1, males, in feed, site: liver, lesion: hepatocellular adenoma, dosed 93 weeks, study length 100 weeks): 1200 mg/kg/day (inactive)
carcinogen call (mouse, strain Charles River CD1, males, in feed, site: liver, lesion: hepatocellular carcinoma, dosed 93 weeks, study length 100 weeks): negative (inactive)
TD50 (mouse, strain Charles River CD1, males, in feed, site: lung, lesion: alveolar-cell adenoma, dosed 93 weeks, study length 100 weeks): 833 mg/kg/day (inactive)
TD50 (mouse, strain Charles River CD1, males, in feed, site: lung, lesion: alveolar-cell carcinoma, dosed 93 weeks, study length 100 weeks): 17000 mg/kg/day (inactive)
carcinogen call (rat, strain Charles River CD (Sprague-Dawley), females, in feed, site: any site (literature study), lesion: malignant tumor, dosed 104 weeks, study length 104 weeks): negative (inactive)
carcinogen call (rat, strain Charles River CD (Sprague-Dawley), females, in feed, site: any site (literature study), lesion: one or several types, types not named, dosed 104 weeks, study length 104 weeks): negative (inactive)
carcinogen call (rat, strain Charles River CD (Sprague-Dawley), females, in feed, site: mammary gland, lesion: several types, types named in the paper, dosed 104 weeks, study length 104 weeks): negative (inactive)
TD50 (rat, strain Charles River CD (Sprague-Dawley), males, in feed, site: any site (literature study), lesion: malignant tumor, dosed 104 weeks, study length 104 weeks): 1200 mg/kg/day (inactive)
carcinogen call (rat, strain Charles River CD (Sprague-Dawley), males, in feed, site: any site (literature study), lesion: one or several types, types not named, dosed 104 weeks, study length 104 weeks): negative (inactive)
TD50 (rat, strain Charles River CD (Sprague-Dawley), males, in feed, site: mammary gland, lesion: fibroadenoma, dosed 104 weeks, study length 104 weeks): 878 mg/kg/day (inactive)
TD50 (rat, strain Fischer 344, females, in feed, site: clitoral gland, lesion: adenoma, dosed 103 weeks, study length 105 weeks): 93.7 mg/kg/day (inactive)
TD50 (rat, strain Fischer 344, males, in feed, site: kidney, lesion: tubule adenoma + tubule carcinoma, dosed 103 weeks, study length 105 weeks): 163 mg/kg/day and 698 mg/kg/day
TD50 (rat, strain Fischer 344, males, in feed, site: liver, lesion: hepatocellular adenoma + hepatocellular carcinoma + neoplastic nodule, dosed 103 weeks, study length 105 weeks): 332 mg/kg/day
TD50 (rat, strain Fischer 344, males, in feed, site: subcutaneous tissue, lesion: fibroma, dosed 103 weeks, study length 105 weeks): 303 mg/kg/day
carcinogen call (rat, strain Fischer 344, males, in feed, site: urinary bladder, lesion: one or several types, types not named, dosed 104 weeks, study length 104 weeks): negative (inactive)
TD50 (rat, strain Holtzman albino (Sprague-Dawley derived), females, in feed, site: mammary gland, lesion: fibroadenoma, dosed 36 weeks, study length 54 weeks): 120 mg/kg/day (inactive)
TD50 (rat, strain Holtzman albino (Sprague-Dawley derived), females, in feed, site: mammary tissue, wider than the gland, lesion: one or several types, types not named, dosed 44 weeks, study length 60 weeks): 214 mg/kg/day (inactive)
TD50 (rat, strain Sprague-Dawley, females, in feed, site: any site (literature study), lesion: several types, types named in the paper, dosed 75 weeks, study length 80 weeks): 185 mg/kg/day (inactive)
TD50 (rat, strain Sprague-Dawley, females, in feed, site: any site (literature study), lesion: several types, types named in the paper, dosed 104 weeks, study length 104 weeks): 64.2 mg/kg/day
TD50 (rat, strain Sprague-Dawley, females, in feed, site: mammary gland, lesion: fibroadenoma, dosed 104 weeks, study length 104 weeks): 54.3 mg/kg/day

COC(=O)[C@H]1[C@H]2C[C@@H]3c4[nH]c5cc(OC)ccc5c4CCN3C[C@H]2C[C@@H](OC(=O)c2cc(OC)c(OC)c(OC)c2)[C@@H]1OC
TD50 (mouse, strain B6C3F1, females, in feed, site: any site (literature study), lesion: several types, types named in the paper, dosed 103 weeks, study length 104 weeks): 6.42 mg/kg/day
TD50 (mouse, strain B6C3F1, females, in feed, site: lung, lesion: alveolar/bronchiolar adenoma + alveolar/bronchiolar carcinoma, dosed 103 weeks, study length 104 weeks): 54.5 mg/kg/day
TD50 (mouse, strain B6C3F1, females, in feed, site: mammary gland, lesion: all tumors, dosed 103 weeks, study length 104 weeks): 3.58 mg/kg/day
TD50 (mouse, strain B6C3F1, males, in feed, site: liver, lesion: hepatocellular adenoma + hepatocellular carcinoma + neoplastic nodule, dosed 103 weeks, study length 104 weeks): 5.46 mg/kg/day
TD50 (mouse, strain B6C3F1, males, in feed, site: seminal vesicle, lesion: undifferentiated carcinoma, dosed 103 weeks, study length 104 weeks): 8.39 mg/kg/day
TD50 (mouse, strain C3H (MTV+), females, in feed, site: mammary gland, lesion: adenocarcinoma, dosed 104 weeks, study length 104 weeks): 0.0342 mg/kg/day
TD50 (rat, strain Fischer 344, females, in feed, site: any site (literature study), lesion: several types, types named in the paper, dosed 103 weeks, study length 104 weeks): 0.727 mg/kg/day (inactive)
TD50 (rat, strain Fischer 344, males, in feed, site: adrenal gland, lesion: pheochromocytoma + pheochromocytoma, malignant, dosed 103 weeks, study length 104 weeks): 0.306 mg/kg/day
TD50 (rat, strain Fischer 344, males, in feed, site: liver, lesion: hepatocellular adenoma + hepatocellular carcinoma + neoplastic nodule, dosed 103 weeks, study length 104 weeks): 6.77 mg/kg/day
carcinogen call (rat, strain Wistar, females, in feed, site: mammary gland, lesion: fibroadenoma, dosed 75 weeks, study length 75 weeks): negative (inactive)
carcinogen call (rat, strain Wistar, females, in feed, site: pituitary gland, lesion: several types, types named in the paper, dosed 75 weeks, study length 75 weeks): negative (inactive)
TD50 (rat, strain Wistar, males, in feed, site: pituitary gland, lesion: adenoma, dosed 75 weeks, study length 75 weeks): 38.3 mg/kg/day (inactive)

COc1cccc2c1cc([N+](=O)[O-])c1c(C(=O)O)cc3c(c12)OCO3
TD50 (rat, strain Wistar, females, by gavage, site: forestomach, lesion: several types, types named in the paper, dosed 52 weeks, study length 69 weeks): 0.0141 mg/kg/day
TD50 (rat, strain Wistar, females, by gavage, site: forestomach, lesion: squamous-cell carcinoma, dosed 52 weeks, study length 69 weeks): 0.101 mg/kg/day
TD50 (rat, strain Wistar, females, by gavage, site: forestomach, lesion: squamous-cell papilloma, dosed 52 weeks, study length 69 weeks): 0.0247 mg/kg/day
carcinogen call (rat, strain Wistar, males, by gavage, site: forestomach, lesion: squamous-cell carcinoma, dosed 52 weeks, study length 69 weeks): positive
